Calls of active or inactive are those of the source. The calls are words filed in the database; no cut-off is given here.
Legend:
[1] = target: T1, Mas-related G-protein coupled receptor member X4 (Homo sapiens, UniProt Q96LA9); test: Antagonist activity at human MRGPRX4 expressed in HEK cells incubated in dark for 1 hr at 37 degree C and then incubated for 30 mins at room temperature in presence of […] bilirubin by HTRF assay; type: functional, cell-based
[2] = target: T1, Mas-related G-protein coupled receptor member X4; test: Antagonist activity at human MRGPRX4 expressed in HEK cells incubated in dark for 1 hr at 37 degree C and then incubated for 30 mins at room temperature in presence of 50 uM of obeticholic acid by HTRF assay; type: functional, cell-based
[3] = Half life in C57BL/6 mouse at 50 mg/kg, po measured upto 24 hrs by LC-MS/MS analysis; type: ADME, organism-based; conditions: in vivo
[4] = target: T1, Mas-related G-protein coupled receptor member X4; test: Antagonist activity at human MRGPRX4 expressed in HEK cells incubated in dark for 1 hr at 37 degree C and then incubated for 30 mins at room temperature in presence of 20 uM of deoxycholic acid by HTRF assay; type: functional, cell-based
[5] = AUC in C57BL/6 mouse at 50 mg/kg, po measured upto 24 hrs by LC-MS/MS analysis; type: ADME, organism-based; design: route oral, dose 50 mg/kg, time <=24; conditions: in vivo
[6] = target: T1, Mas-related G-protein coupled receptor member X4; test: Agonist activity at human MRGPRX4 expressed in HEK cells using preincubated compound in dark at room temperature for 24 hrs by HTRF assay; type: functional, cell-based
[7] = target: T1, Mas-related G-protein coupled receptor member X4; test: Agonist activity at human MRGPRX4 expressed in HEK cells using preincubated compound in dark freezer condition for 24 hrs by HTRF assay; type: functional, cell-based; conditions: filed as agonist
[8] = Stability of compound assessed as parent compound remaining after stored for 24 hrs in dark freezer condition by LC-MS/MS analysis; type: physicochemical; conditions: read-out: Stabilty
[9] = target: T1, Mas-related G-protein coupled receptor member X4; test: Agonist activity at human MRGPRX4 expressed in HEK cells using preincubated compound in blue light at room temperature for 24 hrs by HTRF assay; type: functional, cell-based
[10] = Stability of compound assessed as parent compound remaining after stored for 24 hrs in blue light condition at room temperature by LC-MS/MS analysis; type: physicochemical
[11] = Stability of compound assessed as parent compound remaining after stored for 24 hrs in dark at room temperature by LC-MS/MS analysis; type: physicochemical
[12] = Stability of compound assessed as parent compound remaining after stored for 24 hrs in normal lab light condition at room temperature by LC-MS/MS analysis; type: physicochemical
[13] = target: T1, Mas-related G-protein coupled receptor member X4; test: Agonist activity at human MRGPRX4 expressed in HEK cells using preincubated compound in light at room temperature for 24 hrs by HTRF assay; type: functional, cell-based
[14] = target: T1, Mas-related G-protein coupled receptor member X4; test: Antagonist activity at human MRGPRX4 expressed in HEK cells incubated in dark for 1 hr at 37 degree C and then incubated for 30 mins at room temperature in presence of 100 uM of conjugated bilirubin by HTRF assay; type: functional, cell-based
[15] = target: T1, Mas-related G-protein coupled receptor member X4; test: Antagonist activity at human MRGPRX4 expressed in HEK cells incubated in dark for 1 hr at 37 degree C and then incubated for 30 mins at room temperature in presence of 10 uM of bilirubin by HTRF assay; type: functional, cell-based
[16] = Cmax in C57BL/6 mouse at 50 mg/kg, po measured upto 24 hrs by LC-MS/MS analysis; type: ADME, organism-based; design: route oral, dose 50 mg/kg, time <=24; conditions: in vivo
[17] = target: T1, Mas-related G-protein coupled receptor member X4; test: Antagonist activity at human MRGPRX4 expressed in HEK cells incubated in dark for 1 hr at 37 degree C and then incubated for 30 mins at room temperature in presence of 50 uM of urobilin by HTRF assay; type: functional, cell-based

T1 sequence (Q96LA9 whole entry): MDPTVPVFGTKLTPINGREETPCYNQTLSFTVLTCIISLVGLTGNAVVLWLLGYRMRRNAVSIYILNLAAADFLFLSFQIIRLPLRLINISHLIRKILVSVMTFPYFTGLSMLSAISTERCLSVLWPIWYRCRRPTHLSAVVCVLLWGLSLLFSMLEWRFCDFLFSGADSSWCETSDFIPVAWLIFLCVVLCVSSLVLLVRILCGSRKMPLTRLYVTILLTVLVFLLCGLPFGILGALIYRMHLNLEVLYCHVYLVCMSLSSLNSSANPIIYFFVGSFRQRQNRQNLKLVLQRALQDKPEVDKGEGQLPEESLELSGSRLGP

Row | SMILES | IC50 [1] [nM] | IC50 [2] [nM] | half-life [3] [h] | IC50 [4] [nM] | AUC at 24 h [5] [µM·h] | further results
1 | O=C(O)c1cccc(COc2ccc(Cl)cc2C(F)(F)F)n1 | < 100 | 5 | – | – | – | –
2 | CCc1cc(COc2ccc(C(F)(F)F)cc2Cl)nc(C(=O)O)c1 | < 100 | – | 5.4 | 16 | 4700 | –
3 | O=C(O)c1cccc(COc2ccc(Cl)c(Cl)c2Cl)c1 | < 100 | – | 4 | 24 | 219 | –
4 | C=CC1=C(C)/C(=C/c2[nH]c(Cc3[nH]c(/C=C4\NC(=O)C(C)=C4C=C)c(C)c3CCC(=O)O)c(CCC(=O)O)c2C)NC1=O [BILIRUBIN] | – | – | – | – | – | Activity [6]: inactive; Activity [7]: Active; remaining at 24 h [8]: 44%; Activity [9]: inactive; Stabilty [10]: Unstable; Stabilty [11]: Unstable; Stabilty [12]: Unstable; Activity [13]: inactive
5 | O=C(O)c1cccc(COc2ccc(Cl)cc2Cl)c1 | < 100 | – | 4.2 | 130 | 376 | –
6 | N#Cc1cc(COc2ccc(Cl)cc2Cl)cc(C(=O)O)c1 | < 100 | 6 | – | – | – | –
7 | Clc1ccc(OCc2cccc(-c3nnn[nH]3)c2)c(Cl)c1Cl | < 100 | – | – | – | – | IC50 [17]: 6 nM

More lines, main results first:

Row | IC50 [1] [nM] | IC50 [2] [nM] | half-life [3] [h] | IC50 [4] [nM] | AUC at 24 h [5] [µM·h] | SMILES | further results
8 | < 100 | 22 | 4.8 | 75 | 1200 | Cc1cc(C(F)(F)F)ccc1OCc1cccc(C(=O)O)c1F | IC50 [14]: 12 nM; IC50 [15]: 17 nM; Cmax [16]: 230 µM
9 | < 100 | – | 4.6 | 46 | 615 | O=C(O)c1cccc(COc2ccc(C(F)(F)F)cc2Cl)c1 | –

Reference: ChEMBL document CHEMBL4806969, “Modulators of mas-related g-protein receptor x4 and related products and methods” (2020)
